Measurements: patent US7968526B2, “Antisense oligonucleotides directed to ribonucleotide reductase R2 and uses thereof in the treatment of cancer” (Lorus Therapeutics Inc., priority 2003, dated 2011)
“Also recorded” adds a separate entry of the source. [5mC] = 5-methylcytosine

Tests used:
HT29 tumour xenografts = HT29 tumour xenografts in CD-1 nude mice, methylated oligonucleotides; assay type: in vivo, human cells in mice; details: compared with SEQ ID NO:1
[1] = test system: C8161 human metastatic melanoma cells; test: Experimental metastasis assay, C8161 cells, treatment post tumour cell injection; assay type: in vivo, human cells in mice; details: C8161 cells i.v. into SCID mice; treatment initiated after 2 days; lungs 5-7 weeks later
Description: C8161 human melanoma cells were seeded into 100 mm tissue culture dishes at a density of 2×10^6 and incubated overnight at 37° C. in α-MEM medium supplemented with 10% FBS. The cells were trypsinized, collected by centrifugation and aliquots were removed from the suspension to determine the cell viability using trypan blue exclusion test. […] Treatment was initiated after 2 days. Estimates of the number of lung nodules were made 5-7 weeks later, after excised lungs from individual mice were stained with picric acid dye solution (75% picric acid, 20% formaldehyde, 5% glacial acetic acid).
Murine R3 fibrosarcoma and human C8161 melanoma cells injected into the tail vein of mice form observable lung nodules 2 weeks post-injection. […] To more accurately reflect the clinical situation, mice were treated with SEQ ID NO:1 post tumour cell injection. C8161 human metastatic melanoma cells were seeded into 100 mm tissue culture dishes at a density of 2×10^6 and incubated overnight at 37° C. in α-MEM medium supplemented with 10% FBS. The cells were trypsinized, collected by centrifugation and aliquots were removed from the suspension to determine the cell viability using trypan blue exclusion test. Approximately 1×10^5 cells suspended in 0.1 ml of PBS were injected into the tail veins of 6-8 week old female SCID mice. Treatment was initiated after 2 days. Estimates of the number of lung nodules were made 5-7 weeks later, after excised lungs from individual mice were stained with picric acid dye solution (75% picric acid, 20% formaldehyde, 5% glacial acetic acid). The results are shown in FIG. 31, bars represent the mean number of nodules per mouse with standard error.

[2] = test system: human Burkitt's lymphoma (Raji) cells; test: Survival of SCID mice bearing human Burkitt's lymphoma (Raji); assay type: in vivo, human cells in mice; details: 10 mg/kg i.v. every second day
Description: Mice with established human Burkitt's lymphoma tumours were treated every second day with either saline or SEQ ID NO:1 for 44 days as described above. The control group mice all died from disease progression by day 20. At day 44, the SEQ ID NO:1 mice continued treatment on a weekly basis until stopping the treatment at day 73.
As an additional test of efficacy SEQ ID NO:1 was administered to SCID mice bearing active Burkitt's lymphoma (FIG. 30). Viable human Burkitt's lymphoma (Raji) cells (5×10^6) collected from subconfluent logarithmically growing cultures were injected i.v. into each animal and disease was allowed to establish for 2 days. SEQ ID NO:1, SEQ ID NO:3 and SEQ ID NO:2, in normal saline were administered by tail vein injection every second day at a dose of 10 mg/kg. At day 40 the treatment schedule was reduced to 10 mg/kg every 3 days. Control animals received saline alone, without oligonucleotide. Survival is presented as a percentage of the starting number of mice over time.

[3] = test system: MDA-MB-231 human breast cancer cells; test: MDA-MB-231 breast tumour xenograft in CD-1 nude mice, combination with taxol or doxorubicin (1.7); assay type: in vivo, human cells in mice; details: MDA-MB-231, CD-1 nude mice; oligonucleotides 10 mg/kg i.v. every other day; taxol 10 mg/kg, doxorubicin 5 mg/kg i.v. weekly
Description: After 52 days the mice were sacrificed and the tumours weighed. […] Mitoxantrone was administered intravenously once at the beginning of the treatments at a dose of 2 mg/kg (FIG. 4A) or once a week for four weeks at a reduced dose of 0.8 mg/kg (FIG. 4B). All treatments were stopped at day 50 (FIG. 4A) or 48 (FIG. 4B), respectively. […] Mitoxantrone was administered intravenously once at the beginning of the treatments at a dose of 2 mg/kg (FIG. 5A) or once a week for four weeks at a reduced dose of 0.8 mg/kg (FIG. 5B). All treatments were stopped at day 42 (FIG. 5A) or 38 (FIG. 5B), respectively. […] A2058 is a metastatic melanoma cell line. […] All treatments were stopped at day 24. […] Taxol was administered intravenously once a week at a dose of 10 mg/kg for three (FIG. 7A) or four weeks (FIG. 7C). Doxorubicin was administered intravenously once a week at a dose of 5 mg/kg for first three weeks (FIG. 7A) or for two weeks (FIG. 7C). All treatments were stopped at day 33 (FIG. 7A) or at day 26 (FIG. 7C), respectively. […] In FIG. 7C, antitumour activities were estimated by the inhibition of tumour volume, which was measured with calipers. Each point represents mean tumour volume calculated from 10 animals per experimental group. […] Taxol was administered intravenously once a week for first three weeks and intraperitoneally once a week for next two weeks at a dose of 10 mg/kg. Cisplatin was administered intravenously once a week for first three weeks and intraperitoneally once a week for next two weeks at a dose of 4 mg/kg. All treatments were stopped at day 40. Antitumour activities were estimated by the inhibition of tumour volume, which was measured with caliper. Each point represents mean tumour volume calculated from 9 animals per experimental group.

[4] = test system: Hep G2 human liver cancer cells; test: HepG2 liver tumour growth in CD-1 nude mice (3.7); assay type: in vivo, human cells in mice; details: Hep G2, CD-1 nude mice; 2.5 mg/kg i.v. every day, 30 days
Description: Treatments lasted for 14 days thereafter. Antitumour activities were estimated by the inhibition of tumour volume, which was measured with a caliper on four different occasions over the treatment period. Each point represents mean tumour volume calculated from 5 animals per experimental group. […] Control animals (control) received saline alone for the same period. At the end of the treatments, the animals were sacrificed, tumours were excised and their weights were measured. Each bar represents mean tumour weight calculated from 6 animals per experimental group. […] Treatments lasted for 24 days thereafter. Antitumour activities were estimated by the inhibition of tumour volume, which was measured with a caliper at two-day intervals over the treatment period. Each point represents mean tumour volume calculated from 4 animals per experimental group. […] Treatments lasted for 24 days thereafter. Antitumour activities were estimated by the inhibition of tumour volume, which was measured with a caliper at two-day intervals over the treatment period. Each point represents mean tumour volume calculated from 4 animals per experimental group. […] Treatments lasted for 22 days thereafter. […] Each point represents mean tumour volume calculated from 5 animals per experimental group. […] Treatments lasted for 14 days thereafter. Antitumour activities were estimated by the inhibition of tumour volume, which was measured with a caliper on four different occasions over 16-day period. Each point represents mean tumour volume calculated from 5 animals per experimental group. […] Two different batches of SEQ ID NO:1, synthesized at different times (designated as batch 1 and batch 2), were tested to detect possible batch-specific effects. […] Treatments lasted for 34 days thereafter. Antitumour activities were estimated by the inhibition of tumour volume, which was measured with a caliper at two-day intervals over the treatment period. Each point represents mean tumour volume calculated from 5 animals per experimental group. […] Treatments lasted for 30 days thereafter. Antitumour activities were estimated by the inhibition of tumour volume, which was measured with a caliper at various time intervals over the span of 30 days. Each point represents mean tumour volume calculated from 6 animals per experimental group. […] All treatments were stopped at day 36. Antitumour activities were estimated by the inhibition of tumour volume, which was measured with a caliper. Each point represents mean tumour volume calculated from 5 animals per experimental group. […] All treatments were stopped at day 52. […] Antitumour activities were estimated by the inhibition of tumour volume, which was measured with a caliper.

[5] = test system: HT-29 human colon cancer cells; details: SEQ ID NO:1 6 mg/kg i.v. every day, mitomycin C 3.5 mg/kg/week i.v.
Description: • 1.1 HT-29 human colon cancer cells (3×10^6 cells in 100 μl of PBS) were subcutaneously injected into the right flank of 6-7 weeks old female CD-1 nude mice. After the size of tumour reached an approximate volume of 50 mm^3, 4 days post tumour cell injection, mitomycin C was administered by bolus infusion into the tail vein at days 4, 11 and 18 with a dose of 3.5 mg/kg/week. […] SEQ ID NO:1 was administered by bolus infusion into the tail vein every day at 6 mg/kg and mitomycin C was administered intravenously at days 4, 11 and 18 with a dose of 3.5 mg/kg/week, one hour after the treatments with SEQ ID NO:1. Control animals received saline alone for the same period as SEQ ID NO:1. All treatments were stopped at day 22. A day after the last treatment, tumours were excised from the animals and their weights were measured.

[6] = SCID mice (Example 7, FIG. 30), from day 40 every 3 days
[7] = SCID mice, stopped at day 42, sacrificed day 73, untreated all died within 23 days

Molecule	Anti-tumour activity (FIG. 33) (HT29 tumour xenografts)	Lung nodule formation / anti-metastatic activity (FIG. 31) [1]	Survival of mice [2, 6]	Survival of mice [2, 7]	also measured
SEQ ID NO:5: control oligonucleotide (met-11C) (GGCTAAATCGCTCCACCAAG; listed as DNA, chemistry not fully specified) [reference compound]	measurable, but not significant, effect on the anti-tumour activity	–	–	–	–
5′-ACGCACTCAGCTAGTGACAC-3′ (listed as DNA, chemistry not given here) [SEQ ID NO:3, reference compound]	–	no anti-metastatic activity	neither SEQ ID NO:3 nor SEQ ID NO:2 control ODNs prolonged survival	no observed efficacy	Antitumour effect (tumour weight / volume, FIG. 7) [3]: no significant anti-tumour activity as a monotherapy; also recorded: does not cooperate with doxorubicin; Inhibitory effect on tumour growth (tumour volume, FIG. 20) [4]: did not differ from that in saline treated mice
5′-GGCTAAACTCGTCCACCAAG-3′ (listed as DNA, chemistry not given here) [SEQ ID NO:2, reference compound]	–	no anti-metastatic activity	neither SEQ ID NO:3 nor SEQ ID NO:2 control ODNs prolonged survival	no observed efficacy	–
SEQ ID NO:4: SEQ ID NO:1 with methylation at the CpG (C9) (GGCTAAATCGCTCCACCAAG; [5mC] at 9, all phosphorothioate, sugars by position and methylation of C not given here)	does not abrogate the anti-tumour activity of SEQ ID NO:1; also recorded: measurable, but not significant, effect on the anti-tumour activity	–	–	–	–
CO[C@@]12[C@H](COC(N)=O)C3=C(C(=O)C(C)=C(N)C3=O)N1C[C@@H]1N[C@@H]12 [Mitomycin C, mitomycin C]	–	–	–	–	Tumour weight as % of saline control ([5]; HT-29 (colon), SCID mouse as printed): 15%; Antitumour effect (tumour weight, FIG. 1) ([5]; HT-29, CD-1 nude mice): significant delay of tumour growth compared to saline control
